“And” between values parts separate entries of the source, which are not always exact repeats. Identical values can stand only once. Like-named read-outs stand apart in the source and are kept apart here.
How the values were obtained:
CW2 = experiment: 4 day proliferation assay (CellTiter-Glo); conditions: Homo sapiens, CW-2, 96 h, read-out: 4 day assay GI50
SNU407 = experiment: 4 day proliferation assay (CellTiter-Glo); conditions: Homo sapiens, SNU-407, 96 h, read-out: 4 day assay GI50
LS513 = experiment: CFA 10-14 day clonogenic assay; format: cell-based; conditions: Homo sapiens, LS-513
CAL33 = experiment: 4 day proliferation assay (CellTiter-Glo); conditions: Homo sapiens, CAL-33, 96 h, read-out: 4 day assay GI50
LOVO = experiment: CFA 10-14 day clonogenic assay; format: cell-based; conditions: Homo sapiens
OC314 = experiment: 4 day proliferation assay (CellTiter-Glo); conditions: Homo sapiens, OC-314, 96 h, read-out: 4 day assay GI50
Mouse unbound fraction = format: in vitro ADME; conditions: blood
EN = experiment: 4 day proliferation assay (CellTiter-Glo); conditions: Homo sapiens, 96 h, read-out: 4 day assay GI50
HEC151 = experiment: CFA 10-14 day clonogenic assay; format: cell-based; conditions: Homo sapiens
OVK18 = experiment: 4 day proliferation assay (CellTiter-Glo); conditions: Homo sapiens, OVK18, 96 h, read-out: 4 day assay GI50
[1] = test system: microsatellite-stable (MSS) cells; experiment: Clonogenic assay, 10-to-14-day; conditions: 10-to-14-day clonogenic assay
JHUEM1 = experiment: CFA 10-14 day clonogenic assay; format: cell-based; conditions: Homo sapiens
SNUC5 = experiment: 4 day proliferation assay (CellTiter-Glo); conditions: Homo sapiens, 96 h, read-out: 4 day assay GI50
[2] = Compound 3 blood PK in SW48 tumour-bearing mice; format: in vivo, mouse
Protocol: All animal studies were conducted in accordance with ethics and procedures covered by permit BS-2275 and BS-1975 issued by the Kantonales Veterinäramt Basel-Stadt and in strict adherence to guidelines of the Eidgenössisches Tierschutzgesetz and the Eidgenössische Tierschutzverordnung, Switzerland. All animal studies were approved by the internal ethics committee. All animals had access to food and water ad libitum and were identified with transponders. They were housed in a specific-pathogen-free facility in IVC racks under a 12 h–12 h light–dark cycle. To establish cell-line-derived xenograft models, 6–7-week-old female athymic nude (Crl:NU(NCr)-Foxn1^nu) or SCID-BEIGE (CB17.Cg-PrkdcscidLystbg-J/Crl) mice from Charles River were engrafted subcutaneously with 5 million tumour cells in HBSS (H6648, Sigma-Aldrich). For SNU-407, Lovo, IM95, RL95.2, Ishikawa and IGROV-1, the cells were concentrated in 50% Matrigel (354234, Corning). Patient-derived xenografts were induced and expanded by transplantation as previously described. […]. For the efficacy experiment, mice were randomized into groups (n = 5–6) for a mean tumour size of 100–150 mm^3. […] Blood samples were collected on day 7 and 91. […]. Tumour responses are reported with the measures of tumour volumes from the treatment start. […]. Animals were randomized (n = 3) and tumour samples were collected at 0, 1, 4, 8 and 24 h on the first day and then collected 4 h after the last treatment on day 3, 8, 10, 14 (including a 24 h timepoint), 17 and 21. Tumours were excised, weighed, either frozen in liquid nitrogen and cryogenic dry pulverized with the CryoPrep system (model CP-02, Covaris) or processed to FFPE after fixation. […]. On day 12, blood samples were collected for PK analysis. On the last day (3 h after the last treatment), tumours were excised, weighed, frozen in liquid nitrogen and cryogenic dry pulverized for PD analysis. […]. […]

For `CCc1c(N2CCN(C(=O)c3ncnc(C)c3O)CC2)c(=O)n2nc(C3=CCOCC3)nc2n1CC(=O)Nc1ccc(C(F)(F)F)cc1Cl` [HRO761], the GI50 (CW2) was 112 nM, the Ames (Ames) was “Negative” and the GI50 (SNU407) was 440 nM. The GI50 (LS513) was ≥ 10000 nM, the GI50 (CAL33) was ≥ 10000 nM and the GI50 (LOVO) was 73 nM. For the same compound, the GI50 (OC314) was ≥ 10000 nM, the fraction unbound (Mouse unbound fraction) was 0.193 and the GI50 (EN) was ≥ 10000 nM. The GI50 (HEC151) was 303 nM, the GI50 (OVK18) was ≥ 10000 nM and the effect on viability [1] was “no effect”. It also gave a GI50 (JHUEM1) of 35 nM and a GI50 (SNUC5) of 7240 nM.
For `CCc1c(N2CCN(C(=O)c3ncccc3O)CC2)c(=O)n2nc(C3=CCOCC3)nc2n1CC(=O)Nc1ccc(C(F)(F)F)cc1C` [compound 3], the concentration at 4 h ([2]; 15mg/kg BID, 1 h, single mouse, listed as WRNi #4, read-out: Total blood concentration) was 680 nM and 520 nM, the concentration at 4 h ([2]; 15mg/kg BID, 2 h, single mouse, listed as WRNi #4, read-out: Total blood concentration) was 110 nM and 260 nM and 360 nM and the concentration at 4 h ([2]; 15mg/kg BID, 4 h, single mouse, listed as WRNi #4, read-out: Total blood concentration) was 100 nM and 200 nM. For the same compound, the concentration at 4 h ([2]; 15mg/kg BID, 8 h, single mouse, listed as WRNi #4, read-out: Total blood concentration) was 80 nM and 130 nM and 220 nM, the concentration at 4 h ([2]; 15mg/kg BID, last day of the efficacy experiment, 0.5 h post treatment, single mouse, listed as WRNi #4, read-out: Total blood concentration) was 450 nM and 470 nM and 950 nM and the concentration at 4 h ([2]; 50mg/kg BID, 0.5 h, single mouse, listed as WRNi #4, read-out: Total blood concentration) was 8660 nM and 6870 nM. The concentration at 4 h ([2]; 50mg/kg BID, 1 h, single mouse, listed as WRNi #4, read-out: Total blood concentration) was 5090 nM and 4750 nM, the concentration at 4 h ([2]; 50mg/kg BID, 2 h, single mouse, listed as WRNi #4, read-out: Total blood concentration) was 1600 nM and 2410 nM and the concentration at 4 h ([2]; 50mg/kg BID, 4 h, single mouse, listed as WRNi #4, read-out: Total blood concentration) was 470 nM and 240 nM and 860 nM. The concentration at 4 h ([2]; 50mg/kg BID, 8 h, single mouse, listed as WRNi #4, read-out: Total blood concentration) was 100 nM and 210 nM and 230 nM, the concentration at 4 h ([2]; 150mg/kg BID, 0.5 h, single mouse, listed as WRNi #4, read-out: Total blood concentration) was 23940 nM and 28210 nM and the concentration at 4 h ([2]; 150mg/kg BID, 1 h, single mouse, listed as WRNi #4, read-out: Total blood concentration) was 13050 nM and 11280 nM. The concentration at 4 h ([2]; 150mg/kg BID, 2 h, single mouse, listed as WRNi #4, read-out: Total blood concentration) was 7350 nM and 7410 nM, the concentration at 4 h ([2]; 150mg/kg BID, 4 h, single mouse, listed as WRNi #4, read-out: Total blood concentration) was 3220 nM and 720 nM and 1060 nM and the concentration at 4 h ([2]; 150mg/kg BID, 8 h, single mouse, listed as WRNi #4, read-out: Total blood concentration) was 460 nM and 210 nM and 390 nM. For the same compound, the concentration at 0.5 h ([2]; female, mouse, whole blood, oral, 15 mg/kg, 15mg/kg BID, 0.5 h, read-out: Mean total blood concentration) was 620 nM, the concentration at 1 h ([2]; female, mouse, whole blood, oral, 15 mg/kg, 15mg/kg BID, 1 h, read-out: Mean total blood concentration) was 680 nM and the concentration at 1 h ([2]; female, mouse, whole blood, oral, 15 mg/kg, 15mg/kg BID, 1 h, single mouse, read-out: Total blood concentration) was 840 nM. For the same compound, the concentration at 2 h ([2]; female, mouse, whole blood, oral, 15 mg/kg, 15mg/kg BID, 2 h, read-out: Mean total blood concentration) was 240 nM, the concentration at 4 h ([2]; female, mouse, whole blood, oral, 15 mg/kg, 15mg/kg BID, 4 h, read-out: Mean total blood concentration) was 130 nM and the concentration at 4 h ([2]; female, mouse, whole blood, oral, 15 mg/kg, 15mg/kg BID, 4 h, single mouse, read-out: Total blood concentration) was 100 nM. The concentration at 8 h ([2]; female, mouse, whole blood, oral, 15 mg/kg, 15mg/kg BID, 8 h, read-out: Mean total blood concentration) was 140 nM, the concentration at 0.5 h ([2]; female, mouse, whole blood, oral, 50 mg/kg, 50mg/kg BID, 0.5 h, read-out: Mean total blood concentration) was 7340 nM and the concentration at 0.5 h ([2]; female, mouse, whole blood, oral, 50 mg/kg, 50mg/kg BID, 0.5 h, single mouse, read-out: Total blood concentration) was 6500 nM. For the same compound, the concentration at 1 h ([2]; female, mouse, whole blood, oral, 50 mg/kg, 50mg/kg BID, 1 h, read-out: Mean total blood concentration) was 4820 nM, the concentration at 1 h ([2]; female, mouse, whole blood, oral, 50 mg/kg, 50mg/kg BID, 1 h, single mouse, read-out: Total blood concentration) was 4620 nM and the concentration at 2 h ([2]; female, mouse, whole blood, oral, 50 mg/kg, 50mg/kg BID, 2 h, read-out: Mean total blood concentration) was 2060 nM. The concentration at 2 h ([2]; female, mouse, whole blood, oral, 50 mg/kg, 50mg/kg BID, 2 h, single mouse, read-out: Total blood concentration) was 2180 nM, the concentration at 4 h ([2]; female, mouse, whole blood, oral, 50 mg/kg, 50mg/kg BID, 4 h, read-out: Mean total blood concentration) was 520 nM and the concentration at 8 h ([2]; female, mouse, whole blood, oral, 50 mg/kg, 50mg/kg BID, 8 h, read-out: Mean total blood concentration) was 180 nM. It also gave a concentration at 0.5 h ([2]; female, mouse, whole blood, oral, 150 mg/kg, 150mg/kg BID, 0.5 h, read-out: Mean total blood concentration) of 22900 nM, a concentration at 0.5 h ([2]; female, mouse, whole blood, oral, 150 mg/kg, 150mg/kg BID, 0.5 h, single mouse, read-out: Total blood concentration) of 16500 nM and a concentration at 1 h ([2]; female, mouse, whole blood, oral, 150 mg/kg, 150mg/kg BID, 1 h, read-out: Mean total blood concentration) of 14700 nM. For the same compound, the concentration at 1 h ([2]; female, mouse, whole blood, oral, 150 mg/kg, 150mg/kg BID, 1 h, single mouse, read-out: Total blood concentration) was 19700 nM, the concentration at 2 h ([2]; female, mouse, whole blood, oral, 150 mg/kg, 150mg/kg BID, 2 h, read-out: Mean total blood concentration) was 8330 nM and the concentration at 2 h ([2]; female, mouse, whole blood, oral, 150 mg/kg, 150mg/kg BID, 2 h, single mouse, read-out: Total blood concentration) was 10200 nM. It also gave a concentration at 4 h ([2]; female, mouse, whole blood, oral, 150 mg/kg, 150mg/kg BID, 4 h, read-out: Mean total blood concentration) of 1670 nM and a concentration at 8 h ([2]; female, mouse, whole blood, oral, 150 mg/kg, 150mg/kg BID, 8 h, read-out: Mean total blood concentration) of 350 nM.

From article PMC11078746 (Nature, 2024)
